Details: Liquid

CCCCCCn1cc[n+](C)c1.F[B-](F)(F)F [1-hexyl-3-methylimidazolium tetrafluoroborate]
Details	mass density [kg/m3]
293.15 K, 101.33 kPa, Vibrating tube method	1148.5
313.15 K, 101.33 kPa, Vibrating tube method	1134.7
313.3 K, 10000 kPa, Bellows volumetry	1139
313.3 K, 20000 kPa, Bellows volumetry	1144
313.3 K, 30000 kPa, Bellows volumetry	1149
313.3 K, 40000 kPa, Bellows volumetry	1154
313.3 K, 50000 kPa, Bellows volumetry	1158
313.3 K, 60000 kPa, Bellows volumetry	1162
313.3 K, 70000 kPa, Bellows volumetry	1167
313.3 K, 80000 kPa, Bellows volumetry	1171
313.3 K, 90000 kPa, Bellows volumetry	1174
313.3 K, 100000 kPa, Bellows volumetry	1178
313.3 K, 110000 kPa, Bellows volumetry	1182
313.3 K, 120000 kPa, Bellows volumetry	1186
313.3 K, 130000 kPa, Bellows volumetry	1189
313.3 K, 140000 kPa, Bellows volumetry	1193
313.3 K, 150000 kPa, Bellows volumetry	1196
313.3 K, 160000 kPa, Bellows volumetry	1199
313.3 K, 170000 kPa, Bellows volumetry	1202
313.3 K, 180000 kPa, Bellows volumetry	1206
313.3 K, 190000 kPa, Bellows volumetry	1209
313.3 K, 200000 kPa, Bellows volumetry	1212
332.5 K, 10000 kPa, Bellows volumetry	1126
332.5 K, 20000 kPa, Bellows volumetry	1131
332.5 K, 30000 kPa, Bellows volumetry	1136
332.5 K, 40000 kPa, Bellows volumetry	1141
332.5 K, 50000 kPa, Bellows volumetry	1146
332.5 K, 60000 kPa, Bellows volumetry	1150
332.5 K, 70000 kPa, Bellows volumetry	1154
332.5 K, 80000 kPa, Bellows volumetry	1159
332.5 K, 90000 kPa, Bellows volumetry	1163
332.5 K, 100000 kPa, Bellows volumetry	1167
332.5 K, 110000 kPa, Bellows volumetry	1170
332.5 K, 120000 kPa, Bellows volumetry	1174
332.5 K, 130000 kPa, Bellows volumetry	1178
332.5 K, 140000 kPa, Bellows volumetry	1181
332.5 K, 150000 kPa, Bellows volumetry	1185
332.5 K, 160000 kPa, Bellows volumetry	1188
332.5 K, 170000 kPa, Bellows volumetry	1192
332.5 K, 180000 kPa, Bellows volumetry	1195
332.5 K, 190000 kPa, Bellows volumetry	1198
332.5 K, 200000 kPa, Bellows volumetry	1201
333.15 K, 101.33 kPa, Vibrating tube method	1121
352.6 K, 10000 kPa, Bellows volumetry	1113
352.6 K, 20000 kPa, Bellows volumetry	1118
352.6 K, 30000 kPa, Bellows volumetry	1123
352.6 K, 40000 kPa, Bellows volumetry	1128
352.6 K, 50000 kPa, Bellows volumetry	1133
352.6 K, 60000 kPa, Bellows volumetry	1138
352.6 K, 70000 kPa, Bellows volumetry	1142
352.6 K, 80000 kPa, Bellows volumetry	1147
352.6 K, 90000 kPa, Bellows volumetry	1151
352.6 K, 100000 kPa, Bellows volumetry	1155
352.6 K, 110000 kPa, Bellows volumetry	1159
352.6 K, 120000 kPa, Bellows volumetry	1163
352.6 K, 130000 kPa, Bellows volumetry	1167
352.6 K, 140000 kPa, Bellows volumetry	1170
352.6 K, 150000 kPa, Bellows volumetry	1174
352.6 K, 160000 kPa, Bellows volumetry	1177
352.6 K, 170000 kPa, Bellows volumetry	1181
352.6 K, 180000 kPa, Bellows volumetry	1184
352.6 K, 190000 kPa, Bellows volumetry	1187
352.6 K, 200000 kPa, Bellows volumetry	1191
353.15 K, 101.33 kPa, Vibrating tube method	1107.6
372.7 K, 10000 kPa, Bellows volumetry	1099
372.7 K, 20000 kPa, Bellows volumetry	1105
372.7 K, 30000 kPa, Bellows volumetry	1111
372.7 K, 40000 kPa, Bellows volumetry	1116
372.7 K, 50000 kPa, Bellows volumetry	1121
372.7 K, 60000 kPa, Bellows volumetry	1126
372.7 K, 70000 kPa, Bellows volumetry	1131
372.7 K, 80000 kPa, Bellows volumetry	1135
372.7 K, 90000 kPa, Bellows volumetry	1139
372.7 K, 100000 kPa, Bellows volumetry	1144
372.7 K, 110000 kPa, Bellows volumetry	1148
372.7 K, 120000 kPa, Bellows volumetry	1152
372.7 K, 130000 kPa, Bellows volumetry	1156
372.7 K, 140000 kPa, Bellows volumetry	1160
372.7 K, 150000 kPa, Bellows volumetry	1163
372.7 K, 160000 kPa, Bellows volumetry	1167
372.7 K, 170000 kPa, Bellows volumetry	1170
372.7 K, 180000 kPa, Bellows volumetry	1174
372.7 K, 190000 kPa, Bellows volumetry	1177
372.7 K, 200000 kPa, Bellows volumetry	1180
393 K, 10000 kPa, Bellows volumetry	1087
393 K, 20000 kPa, Bellows volumetry	1093
393 K, 30000 kPa, Bellows volumetry	1098
393 K, 40000 kPa, Bellows volumetry	1104
393 K, 50000 kPa, Bellows volumetry	1109
393 K, 60000 kPa, Bellows volumetry	1114
393 K, 70000 kPa, Bellows volumetry	1119
393 K, 80000 kPa, Bellows volumetry	1124
393 K, 90000 kPa, Bellows volumetry	1128
393 K, 100000 kPa, Bellows volumetry	1133
393 K, 110000 kPa, Bellows volumetry	1137
393 K, 120000 kPa, Bellows volumetry	1141
393 K, 130000 kPa, Bellows volumetry	1145
393 K, 140000 kPa, Bellows volumetry	1149
393 K, 150000 kPa, Bellows volumetry	1153
393 K, 160000 kPa, Bellows volumetry	1157
393 K, 170000 kPa, Bellows volumetry	1160
393 K, 180000 kPa, Bellows volumetry	1164
393 K, 190000 kPa, Bellows volumetry	1167
393 K, 200000 kPa, Bellows volumetry	1171
413 K, 10000 kPa, Bellows volumetry	1074
413 K, 20000 kPa, Bellows volumetry	1080
413 K, 30000 kPa, Bellows volumetry	1086
413 K, 40000 kPa, Bellows volumetry	1092
413 K, 50000 kPa, Bellows volumetry	1098
413 K, 60000 kPa, Bellows volumetry	1103
413 K, 70000 kPa, Bellows volumetry	1108
413 K, 80000 kPa, Bellows volumetry	1113
413 K, 90000 kPa, Bellows volumetry	1118
413 K, 100000 kPa, Bellows volumetry	1122
413 K, 110000 kPa, Bellows volumetry	1126
413 K, 120000 kPa, Bellows volumetry	1131
413 K, 130000 kPa, Bellows volumetry	1135
413 K, 140000 kPa, Bellows volumetry	1139
413 K, 150000 kPa, Bellows volumetry	1143
413 K, 160000 kPa, Bellows volumetry	1147
413 K, 170000 kPa, Bellows volumetry	1150
413 K, 180000 kPa, Bellows volumetry	1154
413 K, 190000 kPa, Bellows volumetry	1158
413 K, 200000 kPa, Bellows volumetry	1161
432.9 K, 10000 kPa, Bellows volumetry	1062
432.9 K, 20000 kPa, Bellows volumetry	1068
432.9 K, 30000 kPa, Bellows volumetry	1075
432.9 K, 40000 kPa, Bellows volumetry	1081
432.9 K, 50000 kPa, Bellows volumetry	1086
432.9 K, 60000 kPa, Bellows volumetry	1092
432.9 K, 70000 kPa, Bellows volumetry	1097
432.9 K, 80000 kPa, Bellows volumetry	1102
432.9 K, 90000 kPa, Bellows volumetry	1107
432.9 K, 100000 kPa, Bellows volumetry	1112
432.9 K, 110000 kPa, Bellows volumetry	1116
432.9 K, 120000 kPa, Bellows volumetry	1121
432.9 K, 130000 kPa, Bellows volumetry	1125
432.9 K, 140000 kPa, Bellows volumetry	1129
432.9 K, 150000 kPa, Bellows volumetry	1133
432.9 K, 160000 kPa, Bellows volumetry	1137
432.9 K, 170000 kPa, Bellows volumetry	1141
432.9 K, 180000 kPa, Bellows volumetry	1145
432.9 K, 190000 kPa, Bellows volumetry	1148
432.9 K, 200000 kPa, Bellows volumetry	1152
452.6 K, 10000 kPa, Bellows volumetry	1049
452.6 K, 20000 kPa, Bellows volumetry	1056
452.6 K, 30000 kPa, Bellows volumetry	1063
452.6 K, 40000 kPa, Bellows volumetry	1069
452.6 K, 50000 kPa, Bellows volumetry	1075
452.6 K, 60000 kPa, Bellows volumetry	1081
452.6 K, 70000 kPa, Bellows volumetry	1086
452.6 K, 80000 kPa, Bellows volumetry	1092
452.6 K, 90000 kPa, Bellows volumetry	1097
452.6 K, 100000 kPa, Bellows volumetry	1101
452.6 K, 110000 kPa, Bellows volumetry	1106
452.6 K, 120000 kPa, Bellows volumetry	1111
452.6 K, 130000 kPa, Bellows volumetry	1115
452.6 K, 140000 kPa, Bellows volumetry	1119
452.6 K, 150000 kPa, Bellows volumetry	1123
452.6 K, 160000 kPa, Bellows volumetry	1128
452.6 K, 170000 kPa, Bellows volumetry	1131
452.6 K, 180000 kPa, Bellows volumetry	1135
452.6 K, 190000 kPa, Bellows volumetry	1139
452.6 K, 200000 kPa, Bellows volumetry	1143
472.5 K, 10000 kPa, Bellows volumetry	1037
472.5 K, 20000 kPa, Bellows volumetry	1045
472.5 K, 30000 kPa, Bellows volumetry	1052
472.5 K, 40000 kPa, Bellows volumetry	1058
472.5 K, 50000 kPa, Bellows volumetry	1064
472.5 K, 60000 kPa, Bellows volumetry	1070
472.5 K, 70000 kPa, Bellows volumetry	1076
472.5 K, 80000 kPa, Bellows volumetry	1081
472.5 K, 90000 kPa, Bellows volumetry	1087
472.5 K, 100000 kPa, Bellows volumetry	1092
472.5 K, 110000 kPa, Bellows volumetry	1096
472.5 K, 120000 kPa, Bellows volumetry	1101
472.5 K, 130000 kPa, Bellows volumetry	1105
472.5 K, 140000 kPa, Bellows volumetry	1110
472.5 K, 150000 kPa, Bellows volumetry	1114
472.5 K, 160000 kPa, Bellows volumetry	1118
472.5 K, 170000 kPa, Bellows volumetry	1122
472.5 K, 180000 kPa, Bellows volumetry	1126
472.5 K, 190000 kPa, Bellows volumetry	1130
472.5 K, 200000 kPa, Bellows volumetry	1134

Reference: the NIST ThermoML archive (doi:10.1021/je800224k)
